Data from US10544095B2 (Pfizer Inc., priority 2015, dated 2020).

Biological target: hTDO2 in human glioblastoma A172 cells (Homo sapiens (Human), UniProt P48775)
Experiment: Cellular assay for TDO2 activity determination in A172 cells
Type: cell-based
Settings: overnight incubation, kynurenine absorbance at 480 nm
Experimental: The compounds of formula I inhibit the activity of human TDO2 in cells that constitutively express TDO2, such as A172 cells. A172 is a cell line derived from human brain glioblastoma cells. The cells are available from the American Type Culture Collection (ATCC®) as CRL-1620™.
The assay (adapted from Pilotte L et al., Proc Natl Acad Sci USA, 2012, 109(7), 2497-502) was performed in 96-well flat bottom plates seeded with human glioblastoma A172 cells, naturally expressing hTDO2 (prepared as described in Tilman et al., Mol Cancer, 2007, 17(6), 80), at a concentration of 1.25×10^4 cells/well in a final volume of 200 μL. To determine TDO, the cells were incubated overnight at 37° C. at 5% CO2 in IMDM (Invitrogen) supplemented with 2% FBS and 2% penicillin/streptomycin in the presence of the compounds of the present invention, at different concentrations.
The plates were then centrifuged 5 min at 1000 rpm, and 100 μL of the supernatant were collected in a conical plate, 30 μL of TCA 30% were added and a further centrifuged at 3000×g for 10 minutes. 100 μL of the supernatant were collected in a flat bottomed plate and 100 μL of 2% (w/v) 4-(dimethylamino)-benzaldehyde in acetic acid and incubated for 5 min at room temperature. Kynurenine concentrations were determined by measuring the absorbance at 480 nm. A standard curve was made with pure kynurenine. The TDO activity was measured as described above using ten serial concentrations of the compounds of the present invention. Data were fitted using the Prism™ software (GraphPad Software, Inc.) using standard parameters.

hTDO2 in human glioblastoma A172 cells, sequence (P48775 whole entry): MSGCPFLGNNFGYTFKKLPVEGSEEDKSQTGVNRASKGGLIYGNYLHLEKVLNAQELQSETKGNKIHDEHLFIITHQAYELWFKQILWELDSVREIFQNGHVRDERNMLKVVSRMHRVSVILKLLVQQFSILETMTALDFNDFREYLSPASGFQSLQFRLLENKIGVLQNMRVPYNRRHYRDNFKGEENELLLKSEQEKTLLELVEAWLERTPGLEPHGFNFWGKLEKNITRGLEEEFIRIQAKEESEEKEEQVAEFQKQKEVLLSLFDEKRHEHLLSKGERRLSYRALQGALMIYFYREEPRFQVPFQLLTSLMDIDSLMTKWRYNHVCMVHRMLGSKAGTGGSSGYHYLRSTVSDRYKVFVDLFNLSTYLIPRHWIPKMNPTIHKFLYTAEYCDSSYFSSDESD

Structure (SMILES)	IC50 [nM]
CN1CCN(C(=O)NCCNS(=O)(=O)c2ccc(-c3c[nH]c4cc(F)ccc34)cc2)CC1 [Example 110, N-(2-(4-(6-fluoro-1H-indol-3-yl)phenylsulfonamido)ethyl)-4-methylpiperazine-1-carboxamide]	180
C[C@@H](O)[C@H](C)N(CCO)S(=O)(=O)c1ccc(-c2c[nH]c3cc(F)ccc23)cc1 [Example 111, 4-(6-fluoro-1H-indol-3-yl)-N-((2S,3R)-3-hydroxybutan-2-yl)-N-(2-hydroxyethyl)benzene sulfonamide]	146
O=S(=O)(c1ccc(-c2c[nH]c3cc(F)ccc23)cc1)N1CCOC[C@@H]1CO [Example 112, (S)-(4-((4-(6-fluoro-1H-indol-3-yl)phenyl)sulfonyl)morpholin-3-yl)methanol]	116
Cn1nccc1C1(O)CCN(S(=O)(=O)c2ccc(-c3c[nH]c4cc(F)ccc34)cc2)C1 (stereo not drawn) [Example 113, 1-((4-(6-fluoro-1H-indol-3-yl)phenyl)sulfonyl)-3-(1-methyl-1H-pyrazol-5-yl)pyrrolidin-3-ol]	90500
Cn1cc(CN(CCO)S(=O)(=O)c2ccc(-c3c[nH]c4cc(F)ccc34)cc2)cn1 [Example 114, 4-(6-fluoro-1H-indol-3-yl)-N-(2-hydroxyethyl)-N-((1-methyl-1H-pyrazol-4-yl)methyl) benzenesulfonamide]	91000
O=S(=O)(c1ccc(-c2c[nH]c3cc(F)ccc23)cc1)N1CCOC[C@H]1CO [Example 115, (R)-(4-((4-(6-fluoro-1H-indol-3-yl)phenyl)sulfonyl)morpholin-3-yl)methanol]	133
C[C@]1(O)CCN(S(=O)(=O)c2ccc(-c3c[nH]c4cc(F)ccc34)cc2)C1 [Example 116, (S)-1-((4-(6-fluoro-1H-indol-3-yl)phenyl)sulfonyl)-3-methylpyrrolidin-3-ol]	92000
O=S(=O)(c1ccc(-c2c[nH]c3cc(F)ccc23)cc1)N(CCO)CCCO [Example 117, 4-(6-fluoro-1H-indol-3-yl)-N-(2-hydroxyethyl)-N-(3-hydroxypropyl)benzenesulfonamide]	109
O=S(=O)(c1ccc(-c2c[nH]c3cc(F)ccc23)cc1)N1CCOCC(O)C1 (stereo not drawn) [Example 118, 4-((4-(6-fluoro-1H-indol-3-yl)phenyl)sulfonyl)-1,4-oxazepan-6-ol]	89
O=S(=O)(c1ccc(-c2c[nH]c3cc(F)ccc23)cc1)N1CCC(O)(c2ccncn2)C1 (stereo not drawn) [Example 119, 1-((4-(6-fluoro-1H-indol-3-yl)phenyl)sulfonyl)-3-(pyrimidin-4-yl)pyrrolidin-3-ol]	123
CN(CC(O)c1cccnn1)S(=O)(=O)c1ccc(-c2c[nH]c3cc(F)ccc23)cc1 (stereo not drawn) [Example 121, 4-(6-fluoro-1H-indol-3-yl)-N-(2-hydroxy-2-(pyridazin-3-yl)ethyl)-N-methylbenzene-sulfonamide]	156
Cc1nccn1CC1(O)CCCN(S(=O)(=O)c2ccc(-c3c[nH]c4cc(F)ccc34)cc2)C1 (stereo not drawn) [Example 122, 1-((4-(6-fluoro-1H-indol-3-yl)phenyl)sulfonyl)-3-((2-methyl-1H-imidazol-1-yl)methyl) piperidin-3-ol]	86000
O=S(=O)(c1ccc(-c2c[nH]c3cc(F)ccc23)cc1)N1C[C@@H](F)C[C@H]1CO [Example 123, ((2S,4S)-4-fluoro-1-((4-(6-fluoro-1H-indol-3-yl)phenyl)sulfonyl)pyrrolidin-2-yl)methanol]	138
O=S(=O)(c1ccc(-c2c[nH]c3cc(F)ccc23)cc1)N1CCC(O)C1 (stereo not drawn) [Example 124, 1-((4-(6-fluoro-1H-indol-3-yl)phenyl)sulfonyl) pyrrolidin-3-ol]	93500
O=S(=O)(c1ccc(-c2c[nH]c3cc(F)ccc23)cc1)N1C[C@H](F)C[C@@H]1CO [Example 125, ((2R,4R)-4-fluoro-1-((4-(6-fluoro-1H-indol-3-yl)phenyl)sulfonyl)pyrrolidin-2-yl)methanol]	97
O=S(=O)(c1ccc(-c2c[nH]c3cc(F)ccc23)cc1)N1C[C@@H](F)C[C@@H]1CO [Example 126, ((2R,4S)-4-fluoro-1-((4-(6-fluoro-1H-indol-3-yl)phenyl)sulfonyl)pyrrolidin-2-yl)methanol]	145
O=C1CCCN1CC1(O)CCN(S(=O)(=O)c2ccc(-c3c[nH]c4cc(F)ccc34)cc2)C1 (stereo not drawn) [Example 127, 1-((1-((4-(6-fluoro-1H-indol-3-yl)phenyl)sulfonyl)-3-hydroxypyrrolidin-3-yl)methyl)pyrrolidin-2-one]	85500
O=S(=O)(c1ccc(-c2c[nH]c3cc(F)ccc23)cc1)N1CC[C@@H](O)[C@@H](O)C1 [Example 128, (3S,4R)-1-((4-(6-fluoro-1H-indol-3-yl)phenyl)sulfonyl)piperidine-3,4-diol]	93500

Structure (SMILES)	IC50 [nM]
O=S(=O)(c1ccc(-c2c[nH]c3cc(F)ccc23)cc1)N1C[C@H](F)[C@@H](O)[C@H](O)[C@H]1CO [Example 129, (2R,3R,4S,5S)-5-f1uoro-1-((4-(6-fluoro-1H-indol-3-yl)phenyl)sulfonyl)-2-(hydroxymethyl) piperidine-3,4-diol]	92000
O=S(=O)(c1ccc(-c2c[nH]c3cc(F)ccc23)cc1)N1CC[C@@H](O)[C@H](O)C1 [Example 130, (3R,4R)-1-((4-(6-fluoro-1H-indol-3-yl)phenyl)sulfonyl)piperidine-3,4-diol]	96
Cc1nccn1CC1(O)CCN(S(=O)(=O)c2ccc(-c3c[nH]c4cc(F)ccc34)cc2)C1 (stereo not drawn) [Example 131, 1-((4-(6-fluoro-1H-indol-3-yl)phenyl)sulfonyl)-3-((2-methyl-1H-imidazol-1-yl)methyl)pyrrolidin-3-ol]	90000
O=C1CCCN1CC1(O)CCCN(S(=O)(=O)c2ccc(-c3c[nH]c4cc(F)ccc34)cc2)C1 (stereo not drawn) [Example 132, 1-((1-((4-(6-fluoro-1H-indol-3-yl)phenyl)sulfonyl)-3-hydroxypiperidin-3-yl)methyl)pyrrolidin-2-one]	83000
CN(CC(O)c1ncc[nH]1)S(=O)(=O)c1ccc(-c2c[nH]c3cc(F)ccc23)cc1 (stereo not drawn) [Example 133, 4-(6-fluoro-1H-indol-3-yl)-N-(2-hydroxy-2-(1H-imidazol-2-yl)ethyl)-N-methylbenzene-sulfonamide]	169
O=S(=O)(c1ccc(-c2c[nH]c3cc(F)ccc23)cc1)N1C[C@H](O)[C@@H](O)[C@@H]1CO [Example 134, (2S,3S,4S)-1-((4-(6-fluoro-1H-indol-3-yl)phenyl)sulfonyl)-2-(hydroxymethyl) pyrrolidine-3,4-diol]	125
CN(CC(O)c1cnccn1)S(=O)(=O)c1ccc(-c2c[nH]c3cc(F)ccc23)cc1 (stereo not drawn) [Example 135, 4-(6-fluoro-1H-indol-3-yl)-N-(2-hydroxy-2-(pyrazin-2-yl)ethyl)-N-methylbenzene-sulfonamide]	161
NS(=O)(=O)c1ccc(-c2c[nH]c3cc(F)ccc23)c(Cl)c1 [Example 136, 3-chloro-4-(6-fluoro-1H-indol-3-yl) benzenesulfonamide]	271
NS(=O)(=O)c1cc(Cl)c(-c2c[nH]c3cc(F)ccc23)c(Cl)c1 [Example 137, 3,5-dichloro-4-(6-fluoro-H-indol-3-yl)-benzenesulfonamide]	7510
CN(C)C(=O)Cc1cc(-c2c[nH]c3cc(F)ccc23)ccc1S(N)(=O)=O [Example 138, 2-(5-(6-fluoro-1H-indol-3-yl)-2-sulfamoylphenyl)-N,N-dimethylacetamide]	3160
NS(=O)(=O)c1ccc(-c2c[nH]c3cc(F)ccc23)cc1CCO [Example 139, 4-(6-fluoro-1H-indol-3-yl)-2-(2-hydroxyethyl)-benzenesulfonamide]	120
CNCCc1cc(-c2c[nH]c3cc(F)ccc23)ccc1S(N)(=O)=O [Example 140, 4-(6-fluoro-1H-indol-3-yl)-2-(2-(methylamino)ethyl)-benzenesulfonamide]	541
CN(C)CCc1cc(-c2c[nH]c3cc(F)ccc23)ccc1S(N)(=O)=O [Example 141, 2-(2-(dimethylamino)ethyl)-4-(6-fluoro-1H-indol-3-yl)benzenesulfonamide]	295
NS(=O)(=O)c1ccc(-c2c[nH]c3cc(F)ccc23)cc1CC(F)(F)F [Example 142, 4-(6-fluoro-1H-indol-3-yl)-2-(2,2,2-trifluoroethyl)-benzenesulfonamide]	247
CNC(=O)Cc1cc(-c2c[nH]c3cc(F)ccc23)ccc1S(N)(=O)=O [Example 143, 2-(5-(6-fluoro-1H-indol-3-yl)-2-sulfamoylphenyl)-N-methylacetamide]	550
NC(=O)Cc1cc(-c2c[nH]c3cc(F)ccc23)ccc1S(N)(=O)=O [Example 144, 2-(5-(6-fluoro-1H-indol-3-yl)-2-sulfamoylphenyl)-acetamide]	174
CN1C(=O)CN(S(=O)(=O)c2ccc(-c3c[nH]c4cc(F)ccc34)cc2)CC1=O [Example 145, 4-((4-(6-fluoro-1H-indol-3-yl)phenyl)sulfonyl)-1-methylpiperazine-2,6-dione]	3610
O=C1CN(S(=O)(=O)c2ccc(-c3c[nH]c4cc(F)ccc34)cc2)CCN1C[C@@H](O)CO [Example 146, (R)-1-(2,3-dihydroxypropyl)-4-((4-(6-fluoro-1H-indol-3-yl)phenyl)sulfonyl)piperazin-2-one]	380
